Earlier results in patent US20210346549A1, “Non-Contact Sanitizing Products and Elements” (Segan Industries, Inc., priority 2020, published 2021).

Key:
[1] = tested on: sporicidal, bactericidal, virulcide, and fungicidal; conditions: low concentrations
[2] = vaccine content versus toxic quantity
bacterial spores = conditions: gas-aerosol concentration of 15 to 20 mg/m3, relative humidity of about 80%
vegetative bacteria = conditions: gas-aerosol concentration of 15 to 20 mg/m3, relative humidity of about 80%
coronavirus 229E = conditions: 1-minute contact time; free chlorine concentration of 1,000 ppm and 5,000 ppm

## CC(=O)OO [Peracetic acid]
[1]
  concentration at which sporicidal, bactericidal, virulcide, and fungicidal: < 0.3%

## C=O [formaldehyde]
[2]
  quantity present in vaccines lower than that necessary to induce toxicity in experimental animals: at least 600 fold

## O=CCCCC=O [glutaraldehyde]
Bacterial spores
  decimal reduction time: less than 45 min
Vegetative bacteria
  decimal reduction time: less than 5 min

## OCl [sodium hypochlorite]
Coronavirus 229E
  virucidal efficacy against coronavirus 229E: effective
